Source: patent US7498343B2, “Mycobacterial inhibitors” (priority 2002, dated 2009)
Values after ≈ are worked out from the molar mass of the structure shown. Where two headings read alike, the source gives them in different places.

Legend:
M. Smegmatis ATCC607 = assay: In-vitro method for testing compounds for anti-bacterial activity against strain M. smegmatis ATCC607 (Alamar Blue growth inhibition); type: cell-based; details: M. smegmatis ATCC607; pIC50 = -logIC50, IC50 in M, 50% inhibitory concentration for bacterial growth; 48 hours incubation
Protocol: C.2. In-vitro Method for Testing Compounds for Anti-bacterial Activity Against Strain M. Smegmatis ATCC607. […] Subsequently, stock solutions (7.8×final test concentration) of compounds were added in 45 μl volumes to a series of duplicate wells in column 2 so as to allow evaluation of their effects on bacterial growth. Serial five-fold dilutions (45 μl in 180 μl) were made directly in the microtiter plates from column 2 to 11 using a customised robot system (Zymark Corp., Hopkinton, Mass.). Pipette tips were changed after every 3 dilutions to minimize pipetting errors with high hydrophobic compounds. Untreated control samples with (column 1) and without (column 12) inoculum were included in each microtiter plate. Approximately 250 CFU per well of bacteria inoculum, in a volume of 100 μl in 2.8×Mueller-Hinton broth medium, was added to the rows […]. The same volume of broth medium without inoculum was added to column 12 in row A to H. The cultures were incubated at 37° C. for 48 hours in a humidified 5% CO2 atmosphere (incubator with open air valve and continuous ventilation). At the end of incubation, two days after inoculation, the bacterial growth was quantitated fluorometrically. Therefore Alamar Blue (10×) was added to all wells in a volume of 20 μl and plates were incubated for another 2 hours at […] The fluorescence was read in a computer-controlled fluorometer (Cytofluor, Biosearch) at an excitation wavelength of 530 nm and an emission wavelength of 590 nm (gain 30). The % growth inhibition achieved by the compounds was calculated according to standard methods.

[1] = system: Mycobacterium tuberculosis (strain H37RV); assay: In-vitro method for testing compounds against M. tuberculosis (resazurin growth inhibition, MIC); type: cell-based; details: MIC data representing IC90's, 7 days incubation, resazurin fluorescence

Row | Compound | pIC50 (M. Smegmatis ATCC607) | MIC [1] [microgram/ml] | MIC ([1]; Mycobacterium tuberculosis, H37RV, 168 h, read-out: MIC) [µg/mL]
1 | COc1nc2ccc(Br)cc2cc1C(c1ccccc1)C(O)(CCN(C)C)c1cccnc1 (racemic) [Compound 87] | 5.0 | 40.23 | –
2 | COc1nc2ccc(Br)cc2cc1C(c1ccccc1)C(O)(CCN1CCCC1)c1ccc2ccccc2c1 (single isomer, unassigned) [Compound 144] | 7.0 | 52.46 | –
3 | COc1nc2ccc(Br)cc2cc1C(c1ccccc1)C(O)(CCN1CCCCC1)c1ccccc1 (stereo not shown) [Compound 48] | 5.8 | 8.65 | –
4 | COc1nc2ccc(Br)cc2cc1C(c1ccccc1)C(O)(CCN(C)C)c1cccc(F)c1 (stereo not shown) [Compound 38] | 7.9 | 8.30 | –
5 | COc1nc2ccc(Br)cc2cc1C(c1ccccc1)C(O)(CCN(C)C)c1cccs1 (single isomer, unassigned) [Compound 21] | 5.4 | 16.17 | –
6 | COc1nc2cc(C)c(Br)cc2cc1C(c1ccccc1)C(O)(CCN(C)C)c1cccc(F)c1 (single isomer, unassigned) [Compound 215] | 6.2 | 8.52 | –
7 | CCN(CC)CCCC(O)(c1ccc2ccccc2c1)C(c1ccccc1)c1cc2cc(Br)ccc2nc1OC (single isomer, unassigned) [Compound 192] | 6.5 | 5.98 | –
8 | COc1nc2ccccc2cc1C(c1ccccc1)C(O)(CCN(C)C)c1ccccc1 (single isomer, unassigned) [Compound 41] | 5.9 | 8.51 | –
9 | COc1nc2ccc(C)cc2cc1C(c1ccccc1)C(O)(CCN(C)C)c1cccc2ccccc12 (racemic) [Compound 83] | 5.8 | 7.78 | –
10 | CCN(CC)CCC(O)(c1ccccc1)C(c1ccccc1)c1cc2cc(Br)ccc2nc1OC (stereo not shown) [Compound 19] | 6.5 | 6.72 | –
11 | COc1nc2ccc(Br)cc2cc1C(c1ccccc1)C(O)(CCCN1CCOCC1)c1cccc2ccccc12 (single isomer, unassigned) [Compound 211] | 4.1 | 61.16 | –
12 | CSc1nc2ccc(Br)cc2cc1C(c1ccccc1)C(O)(CCN(C)C)c1cccc2ccccc12 (racemic) [Compound 88] | 6.8 | 45.40 | –
13 | CN(C)CCC(O)(c1ccccc1)C(c1ccccc1)c1cc2cc(Br)ccc2n(C)c1=O (single isomer, unassigned) [Compound 106] | 6.2 | 55.55 | –
14 | COc1nc2ccc(-c3ccco3)cc2cc1C(c1ccccc1)C(O)(CCN(C)C)c1cccc(F)c1 (single isomer, unassigned) [Compound 174] | 6.8 | 0.06 | –
15 | COc1nc2ccc(Br)cc2cc1C(c1ccccc1)C(O)(CCN1CCCCC1)c1ccccc1 (stereo not shown) [Compound 47] | 6.5 | – | 8.65 (≈ 15.9 µM)
16 | COc1nc2ccc(-c3ccco3)cc2cc1C(c1ccccc1)C(O)(CCN(C)C)c1cccc(F)c1 (single isomer, unassigned) [Compound 175] | 6.5 | 10.19 | –
17 | CN(C)CCC(O)(c1cccc2ccccc12)C(c1ccccc1)c1cc2cc(Br)ccc2[nH]c1=O (single isomer, unassigned) [Compound 138] | 6.6 | 8.58 | –
18 | COc1nc2ccc(Br)cc2cc1C(c1ccccc1)C(O)(CCN(C)C)C1CCN(C(=O)c2ccccc2)CC1 (single isomer, unassigned) [Compound 201] | 5.7 | 9.77 | –
19 | COc1nc2ccc(Br)cc2cc1C(c1ccccc1)C(O)(CCN(C)C)c1c(F)cccc1F (single isomer, unassigned) [Compound 167] | 5.5 | 43.01 | –
20 | COc1nc2cc(Br)ccc2cc1C(c1ccccc1)C(O)(CCN(C)C)c1cccc2ccccc12 (single isomer, unassigned) [Compound 218] | 6.6 | 8.80 | –
